According to US9034884B2, “Heterocyclic-substituted pyrrolopyridines and pyrrolopyrimidines as JAK inhibitors” (Incyte Corporation, priority 2010, dated 2015):

Columns and labels:
[1] = target: T1, JAK2 (a.a. 828-1132) catalytic domain (Homo sapiens, UniProt O60674); assay: In vitro JAK kinase assay (HTRF, phosphorylation of biotinylated peptide), JAK2; assay type: biochemical; conditions: ATP 1 mM
T1 construct: JAK2 (a.a. 828-1132); His tag (N); made in house; host or cells: insect cells (baculovirus)
T1 sequence (O60674 828-1132): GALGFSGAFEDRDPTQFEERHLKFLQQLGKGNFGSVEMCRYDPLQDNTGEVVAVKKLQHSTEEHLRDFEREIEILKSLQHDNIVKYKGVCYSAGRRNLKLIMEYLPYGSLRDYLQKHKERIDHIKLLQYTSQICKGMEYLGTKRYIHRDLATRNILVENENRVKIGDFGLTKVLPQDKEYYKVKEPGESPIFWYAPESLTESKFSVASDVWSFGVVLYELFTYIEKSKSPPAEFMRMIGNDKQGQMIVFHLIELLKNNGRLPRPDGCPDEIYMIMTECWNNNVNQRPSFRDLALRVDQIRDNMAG
Protocol: Compounds herein were tested for inhibitory activity of JAK targets according to the following in vitro assay described in Park et al., Analytical Biochemistry 1999, 269, 94-104. The catalytic domains of human JAK1 (a.a. 837-1142) and JAK2 (a.a. 828-1132) with an N-terminal His tag were expressed using baculovirus in insect cells and purified. The catalytic activity of JAK1 and JAK2 was assayed by measuring the phosphorylation of a biotinylated peptide. The phosphorylated peptide was detected by homogenous time resolved fluorescence (HTRF). […] For the 1 mM IC50 measurements, ATP concentration in the reactions was 1 mM. Reactions were carried out at room temperature for 1 hour and then stopped with 20 μL 45 mM EDTA, 300 nM SA-APC, 6 nM Eu-Py20 in assay buffer (Perkin Elmer, Boston, Mass.). Binding to the Europium labeled antibody took place for 40 minutes and HTRF signal was measured on a Fusion plate reader (Perkin Elmer, Boston, Mass.). See Tables A and B for data related to compounds of the invention (at 1 mM). Data is indicated as ranges, wherein “+” is less than 5 nM; “++” is 5 nM to 25 nM; “+++” is greater than 25 nM to 100 nM; and “++++” is greater than 100 nM.

[2] = target: T2, human JAK1 (a.a. 837-1142) catalytic domain (Homo sapiens, UniProt P23458); assay: In vitro JAK kinase assay (HTRF, phosphorylation of biotinylated peptide), JAK1; assay type: biochemical; conditions: ATP 1 mM
T2 construct: human JAK1 (a.a. 837-1142); His tag (N); made in house; host or cells: insect cells (baculovirus)
T2 sequence (P23458 849-1154): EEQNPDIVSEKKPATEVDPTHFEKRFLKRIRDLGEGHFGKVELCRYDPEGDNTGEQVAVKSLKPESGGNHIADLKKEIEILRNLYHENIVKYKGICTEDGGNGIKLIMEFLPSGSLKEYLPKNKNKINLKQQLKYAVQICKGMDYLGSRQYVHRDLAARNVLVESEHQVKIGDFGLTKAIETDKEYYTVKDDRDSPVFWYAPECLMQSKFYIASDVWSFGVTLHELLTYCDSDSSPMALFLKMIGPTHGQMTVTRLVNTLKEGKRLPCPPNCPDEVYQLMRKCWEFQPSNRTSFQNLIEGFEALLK
Protocol: Compounds herein were tested for inhibitory activity of JAK targets according to the following in vitro assay described in Park et al., Analytical Biochemistry 1999, 269, 94-104. The catalytic domains of human JAK1 (a.a. 837-1142) and JAK2 (a.a. 828-1132) with an N-terminal His tag were expressed using baculovirus in insect cells and purified. The catalytic activity of JAK1 and JAK2 was assayed by measuring the phosphorylation of a biotinylated peptide. The phosphorylated peptide was detected by homogenous time resolved fluorescence (HTRF). […] For the 1 mM IC50 measurements, ATP concentration in the reactions was 1 mM. Reactions were carried out at room temperature for 1 hour and then stopped with 20 μL 45 mM EDTA, 300 nM SA-APC, 6 nM Eu-Py20 in assay buffer (Perkin Elmer, Boston, Mass.). Binding to the Europium labeled antibody took place for 40 minutes and HTRF signal was measured on a Fusion plate reader (Perkin Elmer, Boston, Mass.). […] Data is indicated as ranges, wherein “+” is less than 5 nM; “++” is 5 nM to 25 nM; “+++” is greater than 25 nM to 100 nM; and “++++” is greater than 100 nM.

SMILES | IC50 ([1]; Table B) | IC50 ([2]; Table B) | IC50 ([1]; Table A) | IC50 ([2]; Table A)
N#CCC(CN1CCC(Oc2cc(F)cc(C#N)c2)C(F)C1)n1cc(-c2ncnc3[nH]ccc23)cn1 (single isomer, unassigned) [Example 31 diastereomer 1, 3-[(1-{3-Cyano-2-[4-(7H-pyrrolo[2,3-d]pyrimidin-4-yl)-1H-pyrazol-1-yl]propyl}-3-fluoropiperidin-4-yl)oxy]-5-fluorobenzonitrile (two diastereomers)] | 25 to 100 nM | 5 to 25 nM | – | –
N#CCC(CN1CCC(Oc2cc(F)cc(C(F)(F)F)c2)CC1)n1cc(-c2ncnc3[nH]ccc23)cn1 (stereo not shown) [Example 3, 4-{4-[3-Fluoro-5-(trifluoromethyl)phenoxy]piperidin-1-yl}-3-[4-(7H-pyrrolo[2,3-d]pyrimidin-4-yl)-1H-pyrazol-1-yl]butanenitrile tris(trifluoroacetate)] | – | – | > 100 nM | 5 to 25 nM
N#CCC(CN1CCC(Oc2cc(F)cc(Cl)c2)CC1)n1cc(-c2ncnc3[nH]ccc23)cn1 (stereo not shown) [Example 2] | – | – | 25 to 100 nM | < 5 nM
N#CCC(CN1CCC(Oc2cc(F)cc(C(=O)N3CCOCC3)c2)CC1)n1cc(-c2ncnc3[nH]ccc23)cn1 (stereo not shown) [Example 18, 4-{4-[3-Fluoro-5-(morpholin-4-ylcarbonyl)phenoxy]piperidin-1-yl}-3-[4-(7H-pyrrolo[2,3-d]pyrimidin-4-yl)-1H-pyrazol-1-yl]butanenitrile] | – | – | 5 to 25 nM | < 5 nM
N#CCC(CN1CCC(Oc2cc(F)cc(C(=O)NCCN3CCOCC3)c2)CC1)n1cc(-c2ncnc3[nH]ccc23)cn1 (stereo not shown) [Example 16, 3-[(1-{3-Cyano-2-[4-(7H-pyrrolo[2,3-d]pyrimidin-4-yl)-1H-pyrazol-1-yl]propyl}piperidin-4-yl)oxy]-5-fluoro-N-(2-morpholin-4-ylethyl)benzamide tris(trifluoroacetate)] | – | – | 5 to 25 nM | < 5 nM
N#CCC(CN1CCC(Oc2cc(F)cc(CN3CCC(F)(F)C3)c2)CC1)n1cc(-c2ncnc3[nH]ccc23)cn1 (stereo not shown) [Example 27, 4-(4-{3-[(3,3-difluoropyrrolidin-1-yl)methyl]-5-fluorophenoxy}piperidin-1-yl)-3-[4-(7H-pyrrolo[2,3-d]pyrimidin-4-yl)-1H-pyrazol-1-yl]butanenitrile] | – | – | > 100 nM | 5 to 25 nM
N#CCC(CN1CCC(Oc2cc(F)cc(CN3CCCC3)c2)CC1)n1cc(-c2ncnc3[nH]ccc23)cn1 (stereo not shown) [Example 24, 4-{4-[3-fluoro-5-(pyrrolidin-1-ylmethyl)phenoxy]piperidin-1-yl}-3-[4-(7H-pyrrolo[2,3-d]pyrimidin-4-yl)-1H-pyrazol-1-yl]butanenitrile tetrakis(trifluoroacetate)] | – | – | 25 to 100 nM | < 5 nM
N#CCC(CN1CCC(Oc2cc(F)cc(F)c2)CC1)n1cc(-c2ncnc3[nH]ccc23)cn1 (stereo not shown) [Example 1, 4-[4-(3,5-Difluorophenoxy)piperidin-1-yl]-3-[4-(7H-pyrrolo[2,3-d]pyrimidin-4-yl)-1H-pyrazol-1-yl]butanenitrile tris(trifluoroacetate)] | – | – | 25 to 100 nM | 5 to 25 nM
N#CCC(CN1CCC(Oc2cc(F)cc(C#N)c2)C(F)C1)n1cc(-c2ncnc3[nH]ccc23)cn1 (single isomer, unassigned) [Example 31 diastereomer 2, 3-[(1-{3-Cyano-2-[4-(7H-pyrrolo[2,3-d]pyrimidin-4-yl)-1H-pyrazol-1-yl]propyl}-3-fluoropiperidin-4-yl)oxy]-5-fluorobenzonitrile (two diastereomers)] | 25 to 100 nM | < 5 nM | – | –
N#CCC(CN1CCC(Oc2cc(F)c(F)c(F)c2)CC1)n1cc(-c2ncnc3[nH]ccc23)cn1 (stereo not shown) [Example 4, 3-[4-(7H-Pyrrolo[2,3-d]pyrimidin-4-yl)-1H-pyrazol-1-yl]-4-[4-(3,4,5-trifluorophenoxy)piperidin-1-yl]butanenitrile tris(trifluoroacetate)] | – | – | 25 to 100 nM | 5 to 25 nM
N#CCC(CN1CCC(Oc2cc(F)cc(C(=O)NCCC(N)=O)c2)CC1)n1cc(-c2ncnc3[nH]ccc23)cn1 (stereo not shown) [Example 14, N-(3-Amino-3-oxopropyl)-3-[1(1-{3-cyano-2-[4-(7H-pyrrolo[2,3-d]pyrimidin-4-yl)-1H-pyrazol-1-yl]propyl}piperidin-4-yl)oxy]-5-fluorobenzamide tris(trifluoroacetate)] | – | – | 5 to 25 nM | < 5 nM
CC(C)NC(=O)c1cc(F)cc(OC2CCN(CC(CC#N)n3cc(-c4ncnc5[nH]ccc45)cn3)CC2)c1 (stereo not shown) [Example 11, 3-[(1-{3-Cyano-2-[4-(7H-pyrrolo[2,3-d]pyrimidin-4-yl)-1H-pyrazol-1-yl]propyl}piperidin-4-yl)oxy]-5-fluoro-N-isopropylbenzamide tris(trifluoroacetate)] | – | – | 5 to 25 nM | < 5 nM
CC(C)(C)NC(=O)c1cc(F)cc(OC2CCN(CC(CC#N)n3cc(-c4ncnc5[nH]ccc45)cn3)CC2)c1 (stereo not shown) [Example 15, N-(tert-Butyl)-3-[(1-{3-cyano-2-[4-(7H-pyrrolo[2,3-d]pyrimidin-4-yl)-1H-pyrazol-1-yl]propyl}piperidin-4-yl)oxy]-5-fluorobenzamide tris(trifluoroacetate)] | – | – | < 5 nM | < 5 nM
C[C@@H]1CCCN1Cc1cc(F)cc(OC2CCN(CC(CC#N)n3cc(-c4ncnc5[nH]ccc45)cn3)CC2F)c1 (single isomer, unassigned) [Example 32 diastereomer 2] | 5 to 25 nM | < 5 nM | – | –
N#CCC(CN1CCC(Oc2cc(F)cc(C(=O)NC3CC3)c2)CC1)n1cc(-c2ncnc3[nH]ccc23)cn1 (stereo not shown) [Example 10, 3-[(1-{3-Cyano-2-[4-(7H-pyrrolo[2,3-d]pyrimidin-4-yl)-1H-pyrazol-1-yl]propyl}piperidin-4-yl)oxy]-N-cyclopropyl-5-fluorobenzamide] | – | – | 5 to 25 nM | < 5 nM
N#CCC(CN1CCC(Oc2cc(F)cc(CNC3CCC3)c2)CC1)n1cc(-c2ncnc3[nH]ccc23)cn1 (stereo not shown) [Example 23, 4-(4-{3-[(cyclobutylamino)methyl]-5-fluorophenoxy}piperidin-1-yl)-3-[4-(7H-pyrrolo[2,3-d]pyrimidin-4-yl)-1H-pyrazol-1-yl]butanenitrile tetrakis(trifluoroacetate)] | – | – | 25 to 100 nM | 5 to 25 nM
CNC(=O)c1cc(F)cc(OC2CCN(CC(CC#N)n3cc(-c4ncnc5[nH]ccc45)cn3)CC2)c1 (stereo not shown) [Example 7, 3-[(1-{3-Cyano-2-[4-(7H-pyrrolo[2,3-d]pyrimidin-4-yl)-1H-pyrazol-1-yl]propyl}piperidin-4-yl)oxy]-5-fluoro-N-methylbenzamide tris(trifluoroacetate)] | – | – | 5 to 25 nM | < 5 nM
COCCNCc1cc(F)cc(OC2CCN(CC(CC#N)n3cc(-c4ncnc5[nH]ccc45)cn3)CC2)c1 (stereo not shown) [Example 30, 4-[4-(3-fluoro-5-{[(2-methoxyethyl)amino]methyl}phenoxy)piperidin-1-yl]-3-[4-(7H-pyrrolo[2,3-d]pyrimidin-4-yl)-1H-pyrazol-1-yl]butanenitrile] | – | – | 25 to 100 nM | 5 to 25 nM
N#CCC(CN1CCC(Oc2cc(F)cc(C(=O)N3CCCC3)c2)CC1)n1cc(-c2ncnc3[nH]ccc23)cn1 (stereo not shown) [Example 13, 4-{4-[3-Fluoro-5-(pyrrolidin-1-ylcarbonyl)phenoxy]piperidin-1-yl}-3-[4-(7H-pyrrolo[2,3-d]pyrimidin-4-yl)-1H-pyrazol-1-yl]butanenitrile tris(trifluoroacetate)] | – | – | 5 to 25 nM | < 5 nM
N#CCC(CN1CCC(Oc2cc(F)cc(CN3CCC3)c2)CC1)n1cc(-c2ncnc3[nH]ccc23)cn1 (stereo not shown) [Example 22] | – | – | 25 to 100 nM | < 5 nM
N#CCCNC(=O)c1cc(F)cc(OC2CCN(CC(CC#N)n3cc(-c4ncnc5[nH]ccc45)cn3)CC2)c1 (stereo not shown) [Example 12, N-(2-Cyanoethyl)-3-[(1-{3-cyano-2-[4-(7H-pyrrolo[2,3-d]pyrimidin-4-yl)-1H-pyrazol-1-yl]propyl}piperidin-4-yl)oxy]-5-fluorobenzamide tris(trifluoroacetate)] | – | – | 5 to 25 nM | < 5 nM
CN(C)Cc1cc(F)cc(OC2CCN(CC(CC#N)n3cc(-c4ncnc5[nH]ccc45)cn3)CC2)c1 (single isomer, unassigned) [Example 20 Enantiomer 2, 4-(4-{3-[(Dimethylamino)methyl]-5-fluorophenoxy}piperidin-1-yl)-3-[4-(7H-pyrrolo[2,3-d]pyrimidin-4-yl)-1H-pyrazol-1-yl]butanenitrile (chiral)] | – | – | 5 to 25 nM | –
